# Legend:
# [1] = system: Npc1‐null Chinese hamster ovary cells; experiment: Measurement of intracellular cholesterol in NPC model cells; type: cell-based; conditions: 24 h exposure; for EC50: concentrations up to 1 mM, read-out: EC50, reduction of UC levels accumulated in Npc1‐null cells
# Experimental: WT and Npc1‐null Chinese hamster ovary cells developed previously[34] were used. The cells were grown in a culture medium consisting of a 1:1 mixture of Dulbecco's modified Eagle's medium (DMEM) and F‐12 (Life Technologies) supplemented with 10% fetal bovine serum (FBS; Thermo Fisher Scientific, Inc.). The cells were maintained at 37°C in a saturated humidity atmosphere of 95% air and 5% CO2.
# The measurement of intracellular cholesterol levels was performed in accordance with our previously developed method[35] with minor modification. Cells were pre‐incubated for 24 h and then exposed to a medium containing CD derivatives for 24 h. Thereafter, the cells were lysed, and aliquots were taken for cholesterol and protein measurements. Cholesterol was extracted from the cell lysate using chloroform, 2‐propanol and NP‐40 substitute (7:11:0.1), and the solution was then centrifuged (15 000 × g, 10 min, 4°C). The chloroform layer was evaporated, and the residues were dissolved in a solvent consisting of 2‐propanol, polyoxyethylene alkyl ether and polyoxyethylene lauryl ether (87:10:3). The dissolved samples were divided into two portions—one was incubated with esterase to measure total cholesterol (TC), and the other was incubated without esterase to measure UC. The cholesterol content was measured with a Determiner L FC kit. The EC level was calculated by deducting the UC level from the TC level. Intracellular cholesterol content was normalized by the total protein concentration as determined with a Pierce BCA Protein Assay Kit (Thermo Fisher Scientific, Inc.).
# WT mice [2] = experiment: Systemic biocompatibility of subcutaneous CD derivatives in mice; type: in vivo; conditions: SC 5.7 mmol/kg, 24 h later
# Experimental: (§1) Male and female Npc1 homozygous mutant (BALB/cNctr‐Npc1 ^m1N, Npc1 ^−/−) mice,[36] kindly donated by Prof. Kousaku Ohno and Dr. Katsumi Higaki, were used as a murine model of NPC. Age‐matched WT mice were used as controls. The mice were bred and housed under specific pathogen‐free conditions in the Center for Animal Resources and Development, Kumamoto University. The mice were housed in cages in a room under controlled temperature (24°C) and a 12/12‐h light/dark cycle, and provided with free access to food and water. The animal experiments were performed at the Department of Clinical Chemistry and Informatics, Graduate School of Pharmaceutical Sciences, Kumamoto University. CD derivatives were dissolved in distilled water, and the osmotic pressure was adjusted with sodium chloride to near physiological osmolality. The pH was adjusted to 7.4 using sodium hydroxide, and the solution was filtered with an Advantec DISMIC‐13CP 0.45‐μm filter (Toyo Roshi Kaisha, Ltd.). […] The survival times were recorded based on the day when the endpoint was reached, defined as death or the inability to consume food or drink independently.
# Organ samples were fixed in 4% buffered paraformaldehyde immediately after collection and then embedded in paraffin. […] Histopathological changes were photographed and analyzed by microscopy (BioRevo BZ‐9000; Keyence Co.).
# [3] = system: Npc1 homozygous mutant (Npc1 ^−/−) mice; experiment: Intracerebroventricular administration of CD derivatives in NPC model mice; type: in vivo; conditions: ICV 21.4 μmol/kg once at 4 weeks of age
# Experimental: as §1
# Organ samples were fixed in 4% buffered paraformaldehyde immediately after collection and then embedded in paraffin. […] Histopathological changes were photographed and analyzed by microscopy (BioRevo BZ‐9000; Keyence Co.). […]
# WT mice [4] = experiment: Auditory brainstem response (ABR) after CD derivatives in mice; type: in vivo; conditions: 1 week after, 4-32 kHz
# Experimental: Male and female Npc1 homozygous mutant (BALB/cNctr‐Npc1 ^m1N, Npc1 ^−/−) mice,[36] kindly donated by Prof. Kousaku Ohno and Dr. Katsumi Higaki, were used as a murine model of NPC. Age‐matched WT mice were used as controls. The mice were bred and housed under specific pathogen‐free conditions in the Center for Animal Resources and Development, Kumamoto University. The mice were housed in cages in a room under controlled temperature (24°C) and a 12/12‐h light/dark cycle, and provided with free access to food and water. The animal experiments were performed at the Department of Clinical Chemistry and Informatics, Graduate School of Pharmaceutical Sciences, Kumamoto University. CD derivatives were dissolved in distilled water, and the osmotic pressure was adjusted with sodium chloride to near physiological osmolality. The pH was adjusted to 7.4 using sodium hydroxide, and the solution was filtered with an Advantec DISMIC‐13CP 0.45‐μm filter (Toyo Roshi Kaisha, Ltd.). Intracerebroventricular administration was performed using stereotaxic instruments (IMPACT‐1000C and KDS 310 Plus; Muromachi Kikai Co., Ltd.) under anaesthesia (medetomidine:midazolam:butorphanol, 0.3:4.0:5.0 mg/kg, intraperitoneally). The subcutaneous injection volume was 20 mL/kg for all experimental groups. The survival times were recorded based on the day when the endpoint was reached, defined as death or the inability to consume food or drink independently.
# Auditory thresholds were measured using auditory brainstem response (ABR) System 3 (Tucker‐Davis Technologies). The animals were anaesthetized by intraperitoneal administration of xylazine and ketamine‐HCl in saline. Electrodes were placed beneath the pinna of the treated ear and at the vertex just below the surface of the skin, and the ground electrode was then placed under the contralateral ear. An average of 512 sweeps was calculated at 4, 8, 12, 20 and 32 kHz. The stimulus levels near the threshold were varied in 5‐dB steps, and the threshold was defined as the lowest level at which waves in the ABR could be clearly detected by visual inspection.
# [5] = UC solubility analysis; binding constants of 1:1 and 2:1 CD:UC complexes; type: physicochemical; conditions: as a function of CD concentration, 37°C
# Experimental: An excess of UC (10 mg) was added to each concentration of CD derivative in distilled water and shaken at 37°C for 3 h at 180 rpm. After equilibrium was attained (Figure S1), an aliquot was filtered through a Millex‐HP PES 0.45‐μm filter (Merck Millipore Ltd.). The filtrate was mixed and shaken for 10 min with an appropriate volume of chloroform/methanol (2:1, v/v). After centrifugation (1500 × g, 10 min, 4°C), the chloroform phase was recovered and evaporated. The residue was dissolved in a solvent consisting of 2‐propanol, polyoxyethylene alkyl ether and polyoxyethylene lauryl ether (87:10:3), and the concentration of UC was measured with a Determiner L FC kit (Kyowa Hakko Kirin Co., Ltd.) on a microplate reader (Tecan Group, Ltd.). Three replicate samples were performed. The binding constants of the 1:1 and the 2:1 CD:UC complexes were calculated according to a previously established method.[26]
# α‐glucosidase = conditions: cited from earlier work
Substance,EC50 [1] [µM],ABR threshold (WT mice [4]; single SC 5.7 mmol/kg),further results
2‐hydroxybutyl‐β‐CD [HB‐β‐CD],11.6,–,–
2‐hydroxybutyl‐γ‐CD [HB‐γ‐CD],11.5,–,total protein concentration in BALF (WT mice [2]): significant increases; body weight decline [3]: mitigated; lifespan and median survival time [3]: drastically prolonged
2‐hydroxypropyl‐α‐CD [HP‐α‐CD],–,did not cause any change,"EC/TC ratio ([1]; Npc1‐null cells, above 0.1 mM): significantly diminished; intracellular UC levels ([1]; Npc1‐null cells, concentration‐dependent, 1 mM): significantly diminished; ABR threshold (WT mice [4]; single ICV 21.4 μmol/kg): did not cause any change; UC solubilization profile in aqueous solution [5]: negligible"
"2‐hydroxypropyl‐β‐CD [HP‐β‐CD, reference compound]",40.3,significantly increased,–
2‐hydroxypropyl‐γ‐CD [HP‐γ‐CD],69.6,only a moderate increase,–
mono‐6‐O‐α‐glucosyl‐β‐CD [G1‐β‐CD],59.6,–,–
mono‐6‐O‐α‐glucosyl‐γ‐CD [G1‐γ‐CD],156,–,–
mono‐6‐O‐α‐maltosyl‐β‐CD [G2‐β‐CD],56,–,biodegradation to G1‐β‐CD in whole blood (α‐glucosidase): rapidly biodegraded
mono‐6‐O‐α‐maltosyl‐γ‐CD [G2‐γ‐CD],182,–,–

# Source: article PMC10449817, “Different solubilizing ability of cyclodextrin derivatives for cholesterol in Niemann–Pick disease type C treatment” (Clinical and Translational Medicine, 2023)
